According to the NIST ThermoML archive (doi:10.1016/j.jct.2015.11.012):

Experiment: xn = mol fraction of the nth substance listed
Settings: 100 kPa, Liquid; for viscosity: Capillary tube (Ostwald / Ubbelohde) method; for speed of sound: Frequency=2 MHz, Linear variable-path acoustic interferometer; for mass density: Vibrating tube method

OCCCl [1-chloro-2-hydroxyethane] + Nc1cccc(Cl)c1
Settings	mass density [kg/m3]	speed of sound [m/s]	viscosity [mPa·s]
303.15 K, x2 = 0	1192.12	1342.8	2.578
303.15 K, x2 = 0.0844	1194.38	1365.5	2.728
303.15 K, x2 = 0.1759	1196.5	1388.6	2.888
303.15 K, x2 = 0.2675	1198.32	1410	3.046
303.15 K, x2 = 0.3622	1199.9	1430.2	3.207
303.15 K, x2 = 0.4808	1201.48	1452.7	3.408
303.15 K, x2 = 0.5814	1202.58	1469.7	3.576
303.15 K, x2 = 0.6862	1203.51	1484.7	3.749
303.15 K, x2 = 0.7938	1204.28	1498	3.925
303.15 K, x2 = 0.8902	1204.84	1508.2	4.081
308.15 K, x2 = 0	1186.63	1328.5	2.259
308.15 K, x2 = 0.0844	1189.08	1351.3	2.402
308.15 K, x2 = 0.1759	1191.33	1374.1	2.553
308.15 K, x2 = 0.2675	1193.26	1395.1	2.703
308.15 K, x2 = 0.3622	1194.92	1415	2.855
308.15 K, x2 = 0.4808	1196.62	1437.1	3.045
308.15 K, x2 = 0.5814	1197.79	1454	3.203
308.15 K, x2 = 0.6862	1198.8	1469.2	3.367
308.15 K, x2 = 0.7938	1199.65	1482.5	3.532
308.15 K, x2 = 0.8902	1200.24	1492.7	3.679
313.15 K, x2 = 0	1178.05	1315.5	1.852
313.15 K, x2 = 0.0844	1181.05	1337.6	1.995
313.15 K, x2 = 0.1759	1183.78	1359.6	2.147
313.15 K, x2 = 0.2675	1186.13	1379.6	2.296
313.15 K, x2 = 0.3622	1188.2	1398.4	2.448
313.15 K, x2 = 0.4808	1190.36	1419.6	2.636
313.15 K, x2 = 0.5814	1191.88	1435.7	2.795
313.15 K, x2 = 0.6862	1193.24	1450.5	2.958
313.15 K, x2 = 0.7938	1194.4	1463.3	3.123
313.15 K, x2 = 0.8902	1195.27	1472.8	3.269
318.15 K, x2 = 0	1170.87	1301.2	1.564
318.15 K, x2 = 0.0844	1173.91	1323.6	1.698
318.15 K, x2 = 0.1759	1176.26	1345.1	1.84
318.15 K, x2 = 0.2675	1178.79	1365.6	1.978
318.15 K, x2 = 0.3622	1181.24	1384.1	2.118
318.15 K, x2 = 0.4808	1184.01	1404.8	2.292
318.15 K, x2 = 0.5814	1185.85	1420.8	2.438
318.15 K, x2 = 0.6862	1187.52	1435.5	2.589
318.15 K, x2 = 0.7938	1189.32	1448.6	2.741
318.15 K, x2 = 0.8902	1190.2	1458	2.874

Nc1cccc(Cl)c1 [3-chlorobenzenamine] + NCCO
Settings	mass density [kg/m3]	speed of sound [m/s]	viscosity [mPa·s]
303.15 K, x1 = 0.0857	1037.07	1689	13.56
303.15 K, x1 = 0.1749	1063.03	1674.4	12.66
303.15 K, x1 = 0.2679	1086.86	1658.9	11.72
303.15 K, x1 = 0.3619	1108.19	1642.4	10.77
303.15 K, x1 = 0.4597	1127.88	1624.3	9.773
303.15 K, x1 = 0.5607	1145.96	1604.9	8.747
303.15 K, x1 = 0.6649	1162.61	1584.1	7.685
303.15 K, x1 = 0.7726	1177.97	1562.3	6.586
303.15 K, x1 = 0.8835	1192.12	1540.1	5.451
303.15 K, x1 = 1	1205.32	1517.5	4.255
308.15 K, x1 = 0.0857	1032.99	1673.4	11.04
308.15 K, x1 = 0.1749	1058.89	1659.2	10.35
308.15 K, x1 = 0.2679	1082.69	1643.1	9.621
308.15 K, x1 = 0.3619	1103.96	1626	8.885
308.15 K, x1 = 0.4597	1123.59	1607.5	8.117
308.15 K, x1 = 0.5607	1141.65	1588.1	7.322
308.15 K, x1 = 0.6649	1158.22	1568.1	6.5
308.15 K, x1 = 0.7726	1173.53	1547.2	5.649
308.15 K, x1 = 0.8835	1187.62	1525.2	4.77
308.15 K, x1 = 1	1200.75	1501.2	3.842
313.15 K, x1 = 0.0857	1029.02	1658.8	9.049
313.15 K, x1 = 0.1749	1054.84	1643.8	8.509
313.15 K, x1 = 0.2679	1078.52	1626.5	7.944
313.15 K, x1 = 0.3619	1099.7	1608.2	7.37
313.15 K, x1 = 0.4597	1119.25	1588.8	6.771
313.15 K, x1 = 0.5607	1137.2	1568.9	6.151
313.15 K, x1 = 0.6649	1153.72	1548.6	5.51
313.15 K, x1 = 0.7726	1168.97	1527.7	4.846
313.15 K, x1 = 0.8835	1182.98	1505.5	4.157
313.15 K, x1 = 1	1196.02	1480.3	3.43
318.15 K, x1 = 0.0857	1024.4	1642	7.182
318.15 K, x1 = 0.1749	1050.2	1627.5	6.785
318.15 K, x1 = 0.2679	1073.86	1610.2	6.368
318.15 K, x1 = 0.3619	1095.02	1591.7	5.944
318.15 K, x1 = 0.4597	1114.53	1572.2	5.501
318.15 K, x1 = 0.5607	1132.47	1552.5	5.043
318.15 K, x1 = 0.6649	1149	1532.6	4.568
318.15 K, x1 = 0.7726	1164.23	1512.3	4.075
318.15 K, x1 = 0.8835	1178.23	1490.5	3.565
318.15 K, x1 = 1	1191.25	1464.8	3.022

Nc1cccc(Cl)c1 [3-chlorobenzenamine] + OCCc1ccccc1
Settings	mass density [kg/m3]	speed of sound [m/s]	viscosity [mPa·s]
303.15 K, x1 = 0.0855	1027.23	1509.6	8.643
303.15 K, x1 = 0.1746	1043.06	1511	8.223
303.15 K, x1 = 0.2665	1059.74	1512.3	7.787
303.15 K, x1 = 0.3613	1077.27	1513.6	7.335
303.15 K, x1 = 0.4491	1093.81	1514.6	6.916
303.15 K, x1 = 0.5201	1107.41	1515.4	6.576
303.15 K, x1 = 0.6594	1134.71	1516.5	5.907
303.15 K, x1 = 0.7692	1156.83	1517	5.377
303.15 K, x1 = 0.8787	1179.49	1517.3	4.846
303.15 K, x1 = 1	1205.32	1517.5	4.255
308.15 K, x1 = 0.0855	1023.5	1492.2	6.915
308.15 K, x1 = 0.1746	1039.28	1493.6	6.623
308.15 K, x1 = 0.2665	1055.88	1495	6.319
308.15 K, x1 = 0.3613	1073.34	1496.3	6.005
308.15 K, x1 = 0.4491	1089.81	1497.4	5.712
308.15 K, x1 = 0.5201	1103.34	1498.3	5.473
308.15 K, x1 = 0.6594	1130.52	1499.6	5.005
308.15 K, x1 = 0.7692	1152.56	1500.4	4.632
308.15 K, x1 = 0.8787	1175.08	1500.9	4.259
308.15 K, x1 = 1	1200.75	1501.2	3.842
313.15 K, x1 = 0.0855	1019.67	1472	5.867
313.15 K, x1 = 0.1746	1035.39	1473.4	5.638
313.15 K, x1 = 0.2665	1051.92	1474.6	5.398
313.15 K, x1 = 0.3613	1069.28	1475.8	5.149
313.15 K, x1 = 0.4491	1085.67	1476.9	4.918
313.15 K, x1 = 0.5201	1099.15	1477.7	4.729
313.15 K, x1 = 0.6594	1126.19	1478.9	4.357
313.15 K, x1 = 0.7692	1148.11	1479.7	4.061
313.15 K, x1 = 0.8787	1170.53	1480.3	3.763
313.15 K, x1 = 1	1196.02	1480.3	3.43
318.15 K, x1 = 0.0855	1015.75	1457.9	4.827
318.15 K, x1 = 0.1746	1031.43	1459.1	4.659
318.15 K, x1 = 0.2665	1047.87	1460.2	4.483
318.15 K, x1 = 0.3613	1065.15	1461.2	4.3
318.15 K, x1 = 0.4491	1081.46	1462.1	4.129
318.15 K, x1 = 0.5201	1094.86	1462.8	3.989
318.15 K, x1 = 0.6594	1121.8	1463.9	3.714
318.15 K, x1 = 0.7692	1143.63	1464.6	3.494
318.15 K, x1 = 0.8787	1165.92	1464.8	3.272
318.15 K, x1 = 1	1191.25	1464.8	3.022
